Data as given in US20150225794A1, “METHOD OF PREDICTING A PREDISPOSITION TO QT PROLONGATION” (Vanda Pharmaceuticals, Inc., priority 2009, published 2015).

Assays:
QT interval [1] = experiment: QT prolongation and rs7067971 genotype in individuals given oral iloperidone for two weeks; type: in vivo, human; settings: for High QT, + test (number of individuals) / Low QT, + test (number of individuals): rs7067971 GG; for High QT, + test (number of individuals) / Low QT, + test (number of individuals) / High QT, − test (number of individuals) / Low QT, − test (number of individuals): 24 mg/day B.I.D. oral, two weeks; for High QT, − test (number of individuals) / Low QT, − test (number of individuals): rs7067971 non-GG; for Odds Ratio: rs7067971 GG test
Description: (§1) Since the QT interval changes with changes in heart rate, the QT interval is often measured as a corrected QT (QTc) interval. Any number of formulas may be employed to calculate the QTc, including, for example, the Fridericia formula (QTcF), the Bazett formula (QTcB), and the Rautaharju formula (QTp), among others. In the studies described herein, QT was calculated using the Fridericia formula. However, the present invention includes the use of any such formula or method for calculating a QTc or an uncorrected QT. Using the genotypes at the SNP loci above, it is possible, with a high degree of certainty, to predict an individual's predisposition to QT prolongation.

QT interval [2] = experiment: ABCC2 SNP genotypes and QT prolongation following administration of iloperidone; type: in vivo, human; settings: QTcF
Description: as §1, with “QT.” for “QT. Using the genotypes at the SNP loci above, it is possible, with a high degree of certainty, to predict an individual's predisposition to QT prolongation.”

COc1cc(C(C)=O)ccc1OCCCN1CCC(c2noc3cc(F)ccc23)CC1 [iloperidone]
High QT, + test (number of individuals) (QT interval [1]; change threshold QT > 5 msec): 13 | Low QT, + test (number of individuals) (QT interval [1]; change threshold QT > 5 msec): 0 | High QT, − test (number of individuals) (QT interval [1]; change threshold QT > 5 msec): 101 | Low QT, − test (number of individuals) (QT interval [1]; change threshold QT > 5 msec): 64 | Odds Ratio (QT interval [1]; change threshold QT > 15 msec): 9.38 | High QT, + test (number of individuals) (QT interval [1]; change threshold QT > 15 msec): 11 | Low QT, + test (number of individuals) (QT interval [1]; change threshold QT > 15 msec): 2 | High QT, − test (number of individuals) (QT interval [1]; change threshold QT > 15 msec): 61 | Low QT, − test (number of individuals) (QT interval [1]; change threshold QT > 15 msec): 104 | Odds Ratio (QT interval [1]; change threshold QT > 30 msec): 5.88 | High QT, + test (number of individuals) (QT interval [1]; change threshold QT > 30 msec): 6 | Low QT, + test (number of individuals) (QT interval [1]; change threshold QT > 30 msec): 7 | High QT, − test (number of individuals) (QT interval [1]; change threshold QT > 30 msec): 21 | Low QT, − test (number of individuals) (QT interval [1]; change threshold QT > 30 msec): 144 | Lowest QTc change (genotype) (QT interval [2]; SNP_A-2004488, rs2256678, allele A C, allele B T): non-BB | Lowest QTc change (genotype) (QT interval [2]; SNP_A-2068049, rs7067971, allele A A, allele B G): non-BB | Lowest QTc change (genotype) (QT interval [2]; SNP_A-2253129, rs4919395, allele A C, allele B T): non-BB | Lowest QTc change (genotype) (QT interval [2]; SNP_A-2262953, rs2804398, allele A A, allele B T): non-BB | Lowest QTc change (genotype) (QT interval [2]; SNP_A-4268713, rs2256700, allele A A, allele B G): non-BB
